According to the supplement of paper PMC10307832:

Assays:
Test in all cases: relative viability (nuclei count vs DMSO), 5 days (fraction); higher = more cells survive
Bexarotene + OSI-027 = compound: C=C(c1ccc(C(=O)O)cc1)c1cc2c(cc1C)C(C)(C)CCC2(C)C [Bexarotene] + COc1cccc2cc(-c3nc([C@H]4CC[C@H](C(=O)O)CC4)n4ncnc(N)c34)[nH]c12 [OSI-027] (partner 0.5 µM)
How it was run: (§1)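 Lung cancer cell lines were pin-tool dosed in 1536-well plates on the day after seeding, with either a lone drug or a fixed anchor-drug dose plus five library-drug doses (not always all listed) in √10 steps. Nuclei were counted on 4× images after 5 days. Relative viability is the ratio of treated-well to vehicle-well nuclei counts, with each value a median of duplicate plates.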

Bexarotene + Lapatinib = compound: C=C(c1ccc(C(=O)O)cc1)c1cc2c(cc1C)C(C)(C)CCC2(C)C [Bexarotene] + CS(=O)(=O)CCNCc1ccc(-c2ccc3ncnc(Nc4ccc(OCc5cccc(F)c5)c(Cl)c4)c3c2)o1 [Lapatinib] (partner 2 µM)
How it was run: as §1

Bexarotene + Linsitinib = compound: C=C(c1ccc(C(=O)O)cc1)c1cc2c(cc1C)C(C)(C)CCC2(C)C [Bexarotene] + C[C@]1(O)C[C@@H](c2nc(-c3ccc4ccc(-c5ccccc5)nc4c3)c3c(N)nccn32)C1 [Linsitinib] (partner 1 µM)
How it was run: as §1

Bexarotene + Alpelisib = compound: C=C(c1ccc(C(=O)O)cc1)c1cc2c(cc1C)C(C)(C)CCC2(C)C [Bexarotene] + Cc1nc(NC(=O)N2CCC[C@H]2C(N)=O)sc1-c1ccnc(C(C)(C)C(F)(F)F)c1 [Alpelisib] (partner 2 µM)
How it was run: as §1

Row | Cell Line | relative viability (Bexarotene + OSI-027; first compound 0.08 µM) | relative viability (Bexarotene + OSI-027; first compound 0.253 µM) | relative viability (Bexarotene + OSI-027; first compound 0.8 µM) | relative viability (Bexarotene + OSI-027; first compound 2.53 µM) | relative viability (Bexarotene + OSI-027; first compound 8 µM) | relative viability (Bexarotene + Lapatinib; first compound 0.08 µM) | relative viability (Bexarotene + Lapatinib; first compound 0.253 µM) | relative viability (Bexarotene + Lapatinib; first compound 0.8 µM) | relative viability (Bexarotene + Lapatinib; first compound 2.53 µM) | relative viability (Bexarotene + Lapatinib; first compound 8 µM) | relative viability (Bexarotene + Linsitinib; first compound 0.08 µM) | relative viability (Bexarotene + Linsitinib; first compound 0.253 µM) | relative viability (Bexarotene + Linsitinib; first compound 0.8 µM) | relative viability (Bexarotene + Linsitinib; first compound 2.53 µM) | relative viability (Bexarotene + Linsitinib; first compound 8 µM) | relative viability (Bexarotene + Alpelisib; first compound 0.08 µM) | relative viability (Bexarotene + Alpelisib; first compound 0.253 µM) | relative viability (Bexarotene + Alpelisib; first compound 0.8 µM) | relative viability (Bexarotene + Alpelisib; first compound 2.53 µM) | relative viability (Bexarotene + Alpelisib; first compound 8 µM)
1 | NCI-H23 | 0.607 | 0.597 | 0.6 | 0.55 | 0.461 | 1.13 | 1.11 | 1.2 | 1.06 | 1.12 | 0.737 | 0.673 | 0.533 | 0.638 | 0.654 | 0.812 | 0.782 | 0.551 | 0.829 | 0.656
2 | NCI-H322M | 0.698 | 0.351 | 0.637 | 0.585 | 0.623 | 0.634 | 0.572 | 0.658 | 0.625 | 0.578 | 1.08 | 0.947 | 0.846 | 0.92 | 0.891 | 0.846 | 0.881 | 0.809 | 0.771 | 0.874
3 | NCI-H358 | 0.764 | 0.774 | 0.685 | 0.798 | 0.633 | 0.461 | 0.464 | 0.483 | 0.574 | 0.535 | 0.874 | 0.699 | 0.568 | 0.778 | 0.643 | 1.07 | 0.881 | 0.579 | 1.03 | 0.923
4 | NCI-H460 | 0.844 | 0.727 | 0.704 | 0.701 | 0.618 | 1.01 | 1.03 | 0.948 | 0.981 | 0.731 | 0.94 | 0.865 | 0.757 | 0.66 | 0.744 | 0.654 | 0.733 | 0.539 | 0.596 | 0.519
5 | NCI-H520 | 0.238 | 0.207 | 0.276 | 0.222 | 0.241 | 1.12 | 0.793 | 0.577 | 0.875 | 0.71 | 1.02 | 0.951 | 0.79 | 0.976 | 0.88 | 0.99 | 0.775 | 0.708 | 0.826 | 0.803
6 | NCI-H596 | 0.859 | 0.69 | 0.704 | 0.708 | 0.634 | 1.07 | 1 | 0.783 | 0.916 | 0.928 | 1.12 | 0.966 | 0.838 | 0.981 | 1.06 | 0.581 | 0.6 | 0.479 | 0.668 | 0.565
7 | NCI-H647 | 0.636 | 0.627 | 0.601 | 0.573 | 0.624 | 1.33 | 1.17 | 1.19 | 1.24 | 0.964 | 1.29 | 1.41 | 1.22 | 1.26 | 0.914 | 1.06 | 1.15 | 1.13 | 1.1 | 0.843
8 | NCI-H650 | 0.516 | 0.521 | 0.523 | 0.485 | 0.494 | 1.08 | 1.06 | 0.915 | 0.634 | 0.778 | 0.869 | 0.926 | 0.793 | 0.645 | 0.83 | 1.18 | 1.06 | 1.08 | 1.06 | 1
9 | NCI-H661 | 0.631 | 0.665 | 0.647 | 0.623 | 0.635 | 0.432 | 0.554 | 0.477 | 0.516 | 0.513 | 0.533 | 0.611 | 0.437 | 0.587 | 0.549 | 0.664 | 0.587 | 0.776 | 0.5 | 0.645
10 | NCI-H727 | 0.63 | 0.657 | 0.478 | 0.465 | 0.612 | 1.02 | 0.887 | 0.881 | 0.762 | 0.811 | 0.286 | 0.408 | 0.305 | 0.311 | 0.284 | 0.808 | 0.522 | 0.503 | 0.58 | 0.701
11 | NCI-H838 | 0.443 | 0.391 | 0.465 | 0.47 | 0.554 | 1.05 | 1.19 | 0.974 | 1.14 | 1.03 | 1.13 | 1.11 | 1.03 | 1.17 | 1.06 | 1.1 | 1.11 | 1.14 | 1.08 | 1.06
12 | NCI-H1355 | 0.41 | 0.426 | 0.37 | 0.387 | 0.462 | 1.02 | 1.1 | 0.898 | 1.1 | 0.936 | 1.02 | 0.945 | 0.801 | 0.923 | 0.764 | 0.957 | 0.894 | 0.765 | 0.916 | 0.876
13 | NCI-H1395 | 0.672 | 0.653 | 0.616 | 0.624 | 0.633 | 1.05 | 0.935 | 0.926 | 0.902 | 0.997 | 1.15 | 1.08 | 1.23 | 1.07 | 1.11 | 1.18 | 1.06 | 0.93 | 1.03 | 1.08
14 | NCI-H1437 | 0.985 | 0.819 | 1.01 | 0.89 | 0.982 | 0.975 | 0.893 | 0.759 | 0.9 | 0.778 | 1.01 | 1.09 | 0.93 | 1 | 0.898 | 1.02 | 1.06 | 0.946 | 1.11 | 0.829
15 | NCI-H1563 | 0.842 | 0.787 | 0.813 | 0.897 | 0.849 | 1.09 | 0.945 | 0.799 | 0.903 | 0.891 | 1.21 | 1.28 | 1.03 | 1.06 | 1.04 | 0.947 | 0.804 | 0.955 | 0.973 | 0.839
16 | NCI-H1651 | 0.843 | 0.717 | 0.71 | 0.702 | 0.744 | 1.08 | 0.968 | 0.887 | 0.862 | 0.753 | 1.12 | 0.934 | 1.02 | 1.08 | 0.984 | 1 | 1 | 1.09 | 0.997 | 0.921
